Test results reported in patent US20180273531A1, “PYRIMIDINE COMPOUND AND MEDICAL USE THEREOF” (Japan Tobacco Inc., priority 2004, published 2018).

system: colorectal cancer cell line HT-29 cells; assay: Growth inhibitory effect against cancer cell lines (3H-thymidine uptake), HT-29; type: cell-based; settings: Homo sapiens, HT-29, inhibition of 3H-thymidine uptake; test substance 18 hrs, then 3H-thymidine 6 hrs; triplicate
Summary of the method: (§1)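 Cells seeded at 1.0×10^4/well, grown 24 hrs, then exposed to compound in DMSO for 18 hrs before 6 hrs pulse with ^3H-thymidine (0.25 μCi/well). Harvested cell-incorporated radioactivity counted; IC50 is the concentration halving uptake versus DMSO control, triplicate.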

| SMILES | IC50 |
| --- | --- |
| CON(C)C(=O)Nc1cccc(-n2c(=O)n(C3CC3)c(=O)c3c(Nc4ccc(I)cc4F)n(C)c(=O)c(C)c32)c1 [Example 4-80] | < 10 nM |
| Cc1c(=O)n(C)c(Nc2ccc(I)cc2F)c2c(=O)n(C3CC3)c(=O)n(-c3cccc(NC(N)=O)c3)c12 [Example 4-81] | < 10 nM |
| Cc1c(=O)n(C)c(Nc2ccc(I)cc2F)c2c(=O)n(C3CC3)c(=O)n(-c3ccc4c(c3)NC(=O)C4)c12 [Example 4-88] | < 10 nM |
| Cc1c(=O)n(C)c(Nc2ccc(I)cc2F)c2c(=O)n(C3CC3)c(=O)n(-c3cccc(NC(=O)c4cn[nH]c4)c3)c12 [Example 4-89] | 10 to 100 nM |
| Cc1c(=O)n(C)c(Nc2ccc(I)cc2F)c2c(=O)n(C3CC3)c(=O)n(-c3ccc(C(=O)O)cc3)c12 [Example 4-90] | 10 to 100 nM |
| Cc1c(=O)n(C)c(Nc2ccc(I)cc2F)c2c(=O)n(C3CC3)c(=O)n(-c3ccc(C(N)=O)cc3)c12 [Example 4-91] | < 10 nM |
| CNC(=O)c1ccc(-n2c(=O)n(C3CC3)c(=O)c3c(Nc4ccc(I)cc4F)n(C)c(=O)c(C)c32)cc1 [Example 4-92] | < 10 nM |
| Cc1c(=O)n(C)c(Nc2ccc(I)cc2F)c2c(=O)n(C3CC3)c(=O)n(-c3ccc(C(=O)N(C)C)cc3)c12 [Example 4-93] | < 10 nM |
| C=C(C)c1ccc(Nc2c3c(=O)n(C4CC4)c(=O)n(-c4cccc(NC(C)=O)c4)c3c(C)c(=O)n2C)c(F)c1 [Example 4-97] | < 10 nM |

system: p27 protein; assay: p27 protein induction test (Western blotting); type: cell-based; settings: test substance (0.1 1M), 24 hrs, ACHN cells or HT-29 cells, compared to DMSO, n=2
Summary of the method: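 ACHN or HT-29 cells grown 24 h, then treated with test substance at […] (DMSO) for 24 h. Lysates normalised by protein content and probed by Western blot with anti-p27 antibody. Band density quantified by densitometer against DMSO control, n=2 averaged.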

| SMILES | fold induction at 0.1 µM |
| --- | --- |
| CON(C)C(=O)Nc1cccc(-n2c(=O)n(C3CC3)c(=O)c3c(Nc4ccc(I)cc4F)n(C)c(=O)c(C)c32)c1 [Example 4-80] | ≥ 1.5 |
| Cc1c(=O)n(C)c(Nc2ccc(I)cc2F)c2c(=O)n(C3CC3)c(=O)n(-c3cccc(NC(N)=O)c3)c12 [Example 4-81] | ≥ 1.5 |
| Cc1c(=O)n(C)c(Nc2ccc(I)cc2F)c2c(=O)n(C3CC3)c(=O)n(-c3ccc4c(c3)NC(=O)C4)c12 [Example 4-88] | ≥ 1.5 |
| Cc1c(=O)n(C)c(Nc2ccc(I)cc2F)c2c(=O)n(C3CC3)c(=O)n(-c3cccc(NC(=O)c4cn[nH]c4)c3)c12 [Example 4-89] | ≥ 1.5 |
| Cc1c(=O)n(C)c(Nc2ccc(I)cc2F)c2c(=O)n(C3CC3)c(=O)n(-c3ccc(C(=O)O)cc3)c12 [Example 4-90] | ≥ 1.5 |
| Cc1c(=O)n(C)c(Nc2ccc(I)cc2F)c2c(=O)n(C3CC3)c(=O)n(-c3ccc(C(N)=O)cc3)c12 [Example 4-91] | ≥ 1.5 |
| CNC(=O)c1ccc(-n2c(=O)n(C3CC3)c(=O)c3c(Nc4ccc(I)cc4F)n(C)c(=O)c(C)c32)cc1 [Example 4-92] | ≥ 1.5 |
| Cc1c(=O)n(C)c(Nc2ccc(I)cc2F)c2c(=O)n(C3CC3)c(=O)n(-c3ccc(C(=O)N(C)C)cc3)c12 [Example 4-93] | ≥ 1.5 |
| C=C(C)c1ccc(Nc2c3c(=O)n(C4CC4)c(=O)n(-c4cccc(NC(C)=O)c4)c3c(C)c(=O)n2C)c(F)c1 [Example 4-97] | ≥ 1.5 |

system: Renal cancer cell line ACHN cell; assay: Growth inhibitory effect against cancer cell lines (3H-thymidine uptake), ACHN; type: cell-based; settings: Homo sapiens, ACHN
Summary of the method: as §1

| SMILES | IC50 |
| --- | --- |
| CON(C)C(=O)Nc1cccc(-n2c(=O)n(C3CC3)c(=O)c3c(Nc4ccc(I)cc4F)n(C)c(=O)c(C)c32)c1 [Example 4-80] | 10 to 100 nM |
| Cc1c(=O)n(C)c(Nc2ccc(I)cc2F)c2c(=O)n(C3CC3)c(=O)n(-c3cccc(NC(N)=O)c3)c12 [Example 4-81] | 10 to 100 nM |
| Cc1c(=O)n(C)c(Nc2ccc(I)cc2F)c2c(=O)n(C3CC3)c(=O)n(-c3ccc4c(c3)NC(=O)C4)c12 [Example 4-88] | < 10 nM |
| Cc1c(=O)n(C)c(Nc2ccc(I)cc2F)c2c(=O)n(C3CC3)c(=O)n(-c3cccc(NC(=O)c4cn[nH]c4)c3)c12 [Example 4-89] | 100 to 1000 nM |
| Cc1c(=O)n(C)c(Nc2ccc(I)cc2F)c2c(=O)n(C3CC3)c(=O)n(-c3ccc(C(=O)O)cc3)c12 [Example 4-90] | 100 to 1000 nM |
| Cc1c(=O)n(C)c(Nc2ccc(I)cc2F)c2c(=O)n(C3CC3)c(=O)n(-c3ccc(C(N)=O)cc3)c12 [Example 4-91] | 10 to 100 nM |
| CNC(=O)c1ccc(-n2c(=O)n(C3CC3)c(=O)c3c(Nc4ccc(I)cc4F)n(C)c(=O)c(C)c32)cc1 [Example 4-92] | 10 to 100 nM |
| Cc1c(=O)n(C)c(Nc2ccc(I)cc2F)c2c(=O)n(C3CC3)c(=O)n(-c3ccc(C(=O)N(C)C)cc3)c12 [Example 4-93] | 10 to 100 nM |
| C=C(C)c1ccc(Nc2c3c(=O)n(C4CC4)c(=O)n(-c4cccc(NC(C)=O)c4)c3c(C)c(=O)n2C)c(F)c1 [Example 4-97] | 10 to 100 nM |

system: p15 protein; assay: Evaluation of p15 induction activity (Western blotting); type: cell-based; settings: test substance 0.1 μM, 24 hrs, ACHN cells or HT-29 cells, compared to DMSO, n=2
Summary of the method: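 p15 protein quantified by densitometry of anti-p15 Western blots (10 μg protein per lane, mean of n=2). Samples came from HT-29 or ACHN cells given 0.1 μM compound for 24 h after 24 h plating, with DMSO as control.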

| SMILES | fold induction at 0.1 µM |
| --- | --- |
| CON(C)C(=O)Nc1cccc(-n2c(=O)n(C3CC3)c(=O)c3c(Nc4ccc(I)cc4F)n(C)c(=O)c(C)c32)c1 [Example 4-80] | ≥ 1.5 |
| Cc1c(=O)n(C)c(Nc2ccc(I)cc2F)c2c(=O)n(C3CC3)c(=O)n(-c3cccc(NC(N)=O)c3)c12 [Example 4-81] | ≥ 1.5 |
| Cc1c(=O)n(C)c(Nc2ccc(I)cc2F)c2c(=O)n(C3CC3)c(=O)n(-c3ccc4c(c3)NC(=O)C4)c12 [Example 4-88] | ≥ 1.5 |
| Cc1c(=O)n(C)c(Nc2ccc(I)cc2F)c2c(=O)n(C3CC3)c(=O)n(-c3cccc(NC(=O)c4cn[nH]c4)c3)c12 [Example 4-89] | ≥ 1.5 |
| Cc1c(=O)n(C)c(Nc2ccc(I)cc2F)c2c(=O)n(C3CC3)c(=O)n(-c3ccc(C(=O)O)cc3)c12 [Example 4-90] | ≥ 1.5 |
| Cc1c(=O)n(C)c(Nc2ccc(I)cc2F)c2c(=O)n(C3CC3)c(=O)n(-c3ccc(C(N)=O)cc3)c12 [Example 4-91] | ≥ 1.5 |
| CNC(=O)c1ccc(-n2c(=O)n(C3CC3)c(=O)c3c(Nc4ccc(I)cc4F)n(C)c(=O)c(C)c32)cc1 [Example 4-92] | ≥ 1.5 |
| Cc1c(=O)n(C)c(Nc2ccc(I)cc2F)c2c(=O)n(C3CC3)c(=O)n(-c3ccc(C(=O)N(C)C)cc3)c12 [Example 4-93] | ≥ 1.5 |
| C=C(C)c1ccc(Nc2c3c(=O)n(C4CC4)c(=O)n(-c4cccc(NC(C)=O)c4)c3c(C)c(=O)n2C)c(F)c1 [Example 4-97] | ≥ 1.5 |
